Tested on: GBS clinical isolates and laboratory strains
Test: Macrobroth penicillin tolerance assay
Format: cell-based, Group B Streptococcus
Settings: for 10xMIC, regrowth O.D.600: Penicillin G 10×MIC90 48 h; for 10xMIC, regrowth O.D.600 / 30xMIC, regrowth O.D.600 / 100xMIC, regrowth O.D.600 / 300xMIC, regrowth O.D.600: then 24 h drug-free; for 30xMIC, regrowth O.D.600: Penicillin G 30×MIC90 48 h; for 100xMIC, regrowth O.D.600: Penicillin G 100×MIC90 48 h; for 300xMIC, regrowth O.D.600: Penicillin G 300×MIC90 48 h
Procedure: Using this modified penicillin tolerance assay, tolerant strains from the GBS clinical isolates can be more efficiently identified. In this macrobroth culture format, 25 ml THB broth GBS cultures (containing clinical isolates) were grown to an early exponential growth phase (˜0.2 OD600). Cell cultures (6 ml) were collected and divided into 4 culture tubes. […] Cell cultures were shaken at 150 rpm in order to maintain cells in suspension for proper growth. Subcultures (1/20 dilution) of cells were put into fresh THB containing […] Penase (i.e., 100 μl of Penase 10,000 U stock into 4 ml THB culture). Subcultures were allowed to grow for 24 hours at 37° C. Cell growth was monitored by OD (see Example 2).
(I) Bacterial Strains and Culture Conditions. GBS strains A909 (serotype IA), 515 (serotype IA), NEM316 (serotype III), COHI (serotype III), 2603V/R (serotype V) and O90R (non-typable) were used in this study. E. coli Top10 cells were used for the recombination experiments. GBS was cultured in Todd Hewitt broth (THB) or Tryptic Soy 5% sheep blood (TS) media and E. coli in Luria-broth (LB) medium or agar. Antibiotics were used at the following concentrations: for GBS—penicillin G (MIC90 0.06 μg ml^−1), ampicillin (MIC90 0.12 μg ml^−1), vancomycin (MIC90 2 μg ml^−1), cefazolin (MIC90 1 μg ml^−1) and chloramphenicol (5 μg ml^−1); for E. coli—ampicillin (50 μg ml^−1) and chloramphenicol (5 μg ml^−1). Both GBS and E. coli cultures were grown at 37° C. (II) Tolerance Using the MBC:MIC Ratio Method. Three GBS laboratory strains (i.e., A909, NEM316, and O90R) were cultured overnight for 18 h at 37° C. in THB. Subcultures in THB were subsequently grown to exponential phase (OD600˜0.3; i.e. 5×10^5 cfu/ml) at 37° C. Cell cultures were then exposed to different concentrations of antibiotics (Penicillin G, Ampicillin, Cefozolin or Vancomycin). […] Cell cultures were dispersed every 18 h before OD600 was measured to determine the lowest concentration of antibiotic with 90% growth inhibition (MIC90). Antibiotic treated cells (8 μl) from each well were re-suspended into PBS (100 μl) and plated (54 μl) on TS agar plates and allowed to grow for an additional 24 h at 37° C. Cell count was performed to determine the lowest concentration of antibiotic with 90% killing of original inoculums (MBC90). (III) Penicillin Killing and Regrowth Tolerance Assay by Microbroth Dilution. Three GBS laboratory strains (i.e., A909, NEM316, and O90R) were cultured overnight for 18 h at 37° C. in THB. Subcultures in THB were subsequently grown to exponential phase (OD600˜0.3) at 37° C. Cell cultures were then exposed to different concentrations of Penicillin G (Sigma, St. Louis, Mo.). […] Cell cultures were dispersed. A 1:20 dilution of cells was re-plated into new wells containing fresh THB with 500 U Penase (to degrade residual penicillin). Cell cultures were allowed to re-grow for an additional 24 h at 37° C. before the OD600 was measured. (IV) Measuring Cell Viability by Determining ATP Concentration. GBS strains were cultured for 18 h at 37° C. in THB. These cells were inoculated into fresh THB and subsequently allowed to grow to exponential phase (OD600 0.25-0.3) at 37° C. One ml of each culture was centrifuged at 5,000×g for 4 min. The cell pellet was re-suspended in ATP-free water. Cellular ATP was extracted using trichloroacetic acid (TCA) (5%) for 2 min and subsequently neutralized with Tris-EDTA-0.1M NaOAc, pH 7.75 to 10×TCA volume. The initial (in.) cellular ATP concentration ([ATP]) was measured using the ENLITEN (Promega) luciferase based reaction kit. THB cultures were then treated with 100×MIC90 Penicillin G for 22 h. The experimental (exp.) cellular ATP was extracted and the concentration was measured as stated above. Based on the calculations ([ATP] exp.)/([ATP] in./O.D. in.), differences in viability were equated with the change in [ATP]. (V) Measuring Penicillin Induced Lysis. Three GBS laboratory strains (A909, NEM316, and O90R) were cultured for 18 h at 37° C. in THB. […]

[1] = GBS laboratory strain 2603V/R (V)
[2] = GBS laboratory strain A909 (Ia)
[3] = GBS laboratory strain COH1 (III)
[4] = GBS laboratory strain NEM316 (III)
[5] = GBS laboratory strain O90R (NT)

## CC1(C)S[C@@H]2[C@H](NC(=O)Cc3ccccc3)C(=O)N2[C@H]1C(=O)O [Penicillin G]
51 clinical isolates
  % of clinical isolates PE-PT: 23.5%
  % of clinical isolates PT (penicillin tolerant): 15.7%
  % of clinical isolates S (penicillin susceptible): 60.8%
GBS laboratory strain 515 (Ia)
  Phenotype: Penicillin Tolerance (PT)
  10xMIC, regrowth O.D.600: ++ (“++” indicates an O.D.600 of 0.251 to 0.750)
  30xMIC, regrowth O.D.600: +++ (“+++” indicates an O.D.600 of 0.751 to 1.500)
  100xMIC, regrowth O.D.600: ++ (“++” indicates an O.D.600 of 0.251 to 0.750)
  300xMIC, regrowth O.D.600: ++ (“++” indicates an O.D.600 of 0.251 to 0.750)
[1]
  Phenotype: Susceptible (S)
  10xMIC, regrowth O.D.600: −− (“−−” indicates an O.D.600 of 0.001 to 0.099)
  30xMIC, regrowth O.D.600: −− (“−−” indicates an O.D.600 of 0.001 to 0.099)
  100xMIC, regrowth O.D.600: −− (“−−” indicates an O.D.600 of 0.001 to 0.099)
  300xMIC, regrowth O.D.600: −− (“−−” indicates an O.D.600 of 0.001 to 0.099)
[2]
  Phenotype: Susceptible (S)
  10xMIC, regrowth O.D.600: −− (“−−” indicates an O.D.600 of 0.001 to 0.099)
  30xMIC, regrowth O.D.600: −− (“−−” indicates an O.D.600 of 0.001 to 0.099)
  100xMIC, regrowth O.D.600: −− (“−−” indicates an O.D.600 of 0.001 to 0.099)
  300xMIC, regrowth O.D.600: −− (“−−” indicates an O.D.600 of 0.001 to 0.099)
[3]
  Phenotype: Paradoxical Effect-Penicillin Tolerance
  10xMIC, regrowth O.D.600: −− (“−−” indicates an O.D.600 of 0.001 to 0.099)
  30xMIC, regrowth O.D.600: +++ (“+++” indicates an O.D.600 of 0.751 to 1.500)
  100xMIC, regrowth O.D.600: +++ (“+++” indicates an O.D.600 of 0.751 to 1.500)
  300xMIC, regrowth O.D.600: ++ (“++” indicates an O.D.600 of 0.251 to 0.750)
[4]
  Phenotype: Paradoxical Effect-Penicillin Tolerance
  10xMIC, regrowth O.D.600: +++ (“+++” indicates an O.D.600 of 0.751 to 1.500)
  30xMIC, regrowth O.D.600: −− (“−−” indicates an O.D.600 of 0.001 to 0.099)
  100xMIC, regrowth O.D.600: ++ (“++” indicates an O.D.600 of 0.251 to 0.750)
  300xMIC, regrowth O.D.600: +++ (“+++” indicates an O.D.600 of 0.751 to 1.500)
[5]
  Phenotype: Penicillin Tolerance (PT)
  10xMIC, regrowth O.D.600: +++ (“+++” indicates an O.D.600 of 0.751 to 1.500)
  30xMIC, regrowth O.D.600: +++ (“+++” indicates an O.D.600 of 0.751 to 1.500)
  100xMIC, regrowth O.D.600: +++ (“+++” indicates an O.D.600 of 0.751 to 1.500)
  300xMIC, regrowth O.D.600: +++ (“+++” indicates an O.D.600 of 0.751 to 1.500)
GBS strain 12 (III)
  10xMIC, regrowth O.D.600: −− (“−−” indicates an O.D.600 of 0.001 to 0.099)
  30xMIC, regrowth O.D.600: −− (“−−” indicates an O.D.600 of 0.001 to 0.099)
  100xMIC, regrowth O.D.600: −− (“−−” indicates an O.D.600 of 0.001 to 0.099)
  300xMIC, regrowth O.D.600: −− (“−−” indicates an O.D.600 of 0.001 to 0.099)
GBS strain 18 (NT)
  10xMIC, regrowth O.D.600: −− (“−−” indicates an O.D.600 of 0.001 to 0.099)
  30xMIC, regrowth O.D.600: −− (“−−” indicates an O.D.600 of 0.001 to 0.099)
  100xMIC, regrowth O.D.600: −− (“−−” indicates an O.D.600 of 0.001 to 0.099)
  300xMIC, regrowth O.D.600: −− (“−−” indicates an O.D.600 of 0.001 to 0.099)
GBS strain 21 (NT)
  10xMIC, regrowth O.D.600: −− (“−−” indicates an O.D.600 of 0.001 to 0.099)
  30xMIC, regrowth O.D.600: −− (“−−” indicates an O.D.600 of 0.001 to 0.099)
  100xMIC, regrowth O.D.600: −− (“−−” indicates an O.D.600 of 0.001 to 0.099)
  300xMIC, regrowth O.D.600: −− (“−−” indicates an O.D.600 of 0.001 to 0.099)
GBS strain 22 (V)
  10xMIC, regrowth O.D.600: ++ (“++” indicates an O.D.600 of 0.251 to 0.750)
  30xMIC, regrowth O.D.600: ++ (“++” indicates an O.D.600 of 0.251 to 0.750)
  100xMIC, regrowth O.D.600: ++ (“++” indicates an O.D.600 of 0.251 to 0.750)
  300xMIC, regrowth O.D.600: ++ (“++” indicates an O.D.600 of 0.251 to 0.750)
GBS strain 26 (NT)
  10xMIC, regrowth O.D.600: −− (“−−” indicates an O.D.600 of 0.001 to 0.099)
  30xMIC, regrowth O.D.600: −− (“−−” indicates an O.D.600 of 0.001 to 0.099)
  100xMIC, regrowth O.D.600: −− (“−−” indicates an O.D.600 of 0.001 to 0.099)
  300xMIC, regrowth O.D.600: −− (“−−” indicates an O.D.600 of 0.001 to 0.099)
GBS strain 46 (Ib)
  10xMIC, regrowth O.D.600: −− (“−−” indicates an O.D.600 of 0.001 to 0.099)
  30xMIC, regrowth O.D.600: −− (“−−” indicates an O.D.600 of 0.001 to 0.099)
  100xMIC, regrowth O.D.600: −− (“−−” indicates an O.D.600 of 0.001 to 0.099)
  300xMIC, regrowth O.D.600: −− (“−−” indicates an O.D.600 of 0.001 to 0.099)
GBS strain 47 (III)
  10xMIC, regrowth O.D.600: −− (“−−” indicates an O.D.600 of 0.001 to 0.099)
  30xMIC, regrowth O.D.600: −− (“−−” indicates an O.D.600 of 0.001 to 0.099)
